For 2 compounds, IC50 and IC90 results are on record in ChEMBL document CHEMBL1649193, “Statins as potential antimalarial drugs: low relative potency and lack of synergy with conventional antimalarial drugs” (Antimicrob Agents Chemother, 2009).

Holding throughout (assay type): functional, organism-based
Assay [1] has as its system Plasmodium falciparum. In words: Antimalarial activity against chloroquine-resistant Plasmodium falciparum Dd2 assessed as Plasmodium lactate dehydrogenase release after 48 hrs by colorimetry. As to conditions: Dd2, 48 h.
Assay [2] deals with Plasmodium falciparum. In words: Antimalarial activity against chloroquine-resistant Plasmodium falciparum E8B assessed as Plasmodium lactate dehydrogenase release after 48 hrs by colorimetry.
For assay [3], the system named is Plasmodium falciparum. In words: Antimalarial activity against chloroquine-sensitive Plasmodium falciparum 3D7 assessed as Plasmodium lactate dehydrogenase release after 48 hrs by colorimetry. As to conditions: 3D7, 48 h.

As to `CC(C)c1c(C(=O)Nc2ccccc2)c(-c2ccccc2)c(-c2ccc(F)cc2)n1CC[C@@H](O)C[C@@H](O)CC(=O)O` [ATORVASTATIN], the IC50 was determined as 17 µM in the assay on Plasmodium falciparum [1], 17 µM with Plasmodium falciparum [2] and 25 µM in the assay on Plasmodium falciparum [3]. For the same compound, the IC90 with Plasmodium falciparum [1] worked out at 39 µM; in the assay with Plasmodium falciparum [2], 39 µM; in the assay on Plasmodium falciparum [3] it was 68 µM.
For `CC(C)c1nc(N(C)S(C)(=O)=O)nc(-c2ccc(F)cc2)c1/C=C/[C@@H](O)C[C@@H](O)CC(=O)O` [ROSUVASTATIN], the IC50 in the assay with Plasmodium falciparum [1], in the assay on Plasmodium falciparum [2] and in the assay on Plasmodium falciparum [3] was 80 µM throughout. For the same compound, the figures for the IC90 with Plasmodium falciparum [1], with Plasmodium falciparum [2] and in the assay on Plasmodium falciparum [3] were 232 µM, 232 µM and 205 µM, respectively.
